Reference: patent publication US9328099B2, “Cyanomethylpyrazole carboxamides as janus kinase inhibitors” (Merck Sharp & Dohme Corp., priority 2011, dated 2016)
Read-outs that look alike come from different tables or passages of the source.

Key:
JAK2 = JAK2 (Homo sapiens (Human), UniProt O60674); assay: Jak Biochemical HTRF Assay, JAK2; conditions: HTRF biochemical assay, GST-tagged catalytic domain; top concentration tested […]
From the text: (§1) Jak Biochemical HTRF Assay Protocol
(§2) Subsequent reagent additions employed an Agilent Bravo.

JAK1 = JAK1 (Homo sapiens (Human), UniProt P23458); assay: Jak Biochemical HTRF Assay, JAK1
From the text: as §1, §2

[1] = HTRF biochemical assay, GST-tagged catalytic domain, top concentration tested […], read-out: JAK1 IC50

Sequence of JAK1 (P23458 875-1153): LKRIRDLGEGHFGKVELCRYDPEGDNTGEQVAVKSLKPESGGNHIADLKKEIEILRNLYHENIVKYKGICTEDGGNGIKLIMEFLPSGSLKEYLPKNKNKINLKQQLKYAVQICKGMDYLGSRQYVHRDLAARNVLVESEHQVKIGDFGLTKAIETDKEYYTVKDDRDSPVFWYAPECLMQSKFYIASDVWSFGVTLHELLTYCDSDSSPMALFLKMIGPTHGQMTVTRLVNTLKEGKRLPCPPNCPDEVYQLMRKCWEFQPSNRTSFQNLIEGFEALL
Sequence of JAK2 (O60674 849-1124): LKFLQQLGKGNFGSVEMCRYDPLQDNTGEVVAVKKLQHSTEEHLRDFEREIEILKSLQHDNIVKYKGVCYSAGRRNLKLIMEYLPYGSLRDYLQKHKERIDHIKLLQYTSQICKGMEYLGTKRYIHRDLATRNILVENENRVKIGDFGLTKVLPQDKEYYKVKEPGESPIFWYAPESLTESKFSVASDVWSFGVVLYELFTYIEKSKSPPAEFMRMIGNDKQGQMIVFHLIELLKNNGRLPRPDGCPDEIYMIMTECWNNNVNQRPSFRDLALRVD

| SMILES | IC50 (JAK2) [nM] | IC50 (JAK1; [1]) [nM] | IC50 (JAK1; JAK1 IC50) [nM] |
| --- | --- | --- | --- |
| CN(CCS(C)(=O)=O)C1CCC(CC#N)(n2cc(C(N)=O)c(Nc3ccc(F)cc3)n2)CC1 (stereo not drawn) [Example 40-72, Cis or trans 1-[1-(cyanomethyl)-4-{methyl[2-(methylsulfonyl)ethyl]amino}cyclohexyl]-3-[(4-fluorophenyl)amino]-1H-pyrazole-4-carboxamide] | 37 | 1 |  |
| N#CCC1(n2cc(C(N)=O)c(Nc3ccc(F)cc3)n2)CCC(Nc2ccc(C(F)(F)F)cc2)CC1 (stereo not drawn) [Example 40-73, Cis or trans 1-[1-(cyanomethyl)-4-{[4-(trifluoromethyl)phenyl]amino}cyclohexyl]-3-[(4-fluorophenyl)amino]-1H-pyrazole-4-carboxamide] | > 1500 | 139 |  |
| COC1CN(C2CCC(CC#N)(n3cc(C(N)=O)c(Nc4ccc(F)cc4)n3)CC2)C1 (stereo not drawn) [Example 40-74, Cis or trans 1-[1-(cyanomethyl)-4-(3-methoxyazetidin-1-yl)cyclohexyl]-3-[(4-fluorophenyl)amino]-1H-pyrazole-4-carboxamide] | 35 | 1 |  |
| N#CCC1(n2cc(C(N)=O)c(Nc3ccc(F)cc3)n2)CCC(Nc2cccnc2)CC1 (stereo not drawn) [Example 40-75, Cis or trans 1-[1-(cyanomethyl)-4-(pyridin-3-ylamino)cyclohexyl]-3-[(4-fluorophenyl)amino]-1H-pyrazole-4-carboxamide] | 7 | 0.2 |  |
| CC(=O)N1CCN(C2CCC(CC#N)(n3cc(C(N)=O)c(Nc4ccc(F)cc4)n3)CC2)CC1 (stereo not drawn) [Example 40-76, Cis or trans 1-[4-(4-acetylpiperazin-1-yl)-1-(cyanomethyl)cyclohexyl]-3-[(4-fluorophenyl)amino]-1H-pyrazole-4-carboxamide] | 225 | 13 |  |
| N#CCC1(n2cc(C(N)=O)c(Nc3ccc(F)cc3)n2)CCC(NCC(F)F)CC1 (stereo not drawn) [Example 40-77, Cis or trans 1-{1-(cyanomethyl)-4-[(2,2-difluoroethyl)amino]cyclohexyl}-3-[(4-fluorophenyl)amino]-1H-pyrazole-4-carboxamide] | 13 | 0.7 |  |
| N#CCC1(n2cc(C(N)=O)c(Nc3ccc(F)cc3)n2)CCC(NCCF)CC1 (stereo not drawn) [Example 40-79, Cis or trans 1-{1-(cyanomethyl)-4-[(2-fluoroethyl)amino]cyclohexyl}-3-[(4-fluorophenyl)amino]-1H-pyrazole-4-carboxamide] | 133 | 8 |  |
| N#CCC1(n2cc(C(N)=O)c(Nc3ccc(F)cc3)n2)CCC(N2CCC2)CC1 (stereo not drawn) [Example 40-80, Cis or trans 1-[4-azetidin-1-yl-1-(cyanomethyl)cyclohexyl]-3-[(4-fluorophenyl)amino]-1H-pyrazole-4-carboxamide] | 325 | 14 |  |
| COC1CN(C2CCC(CC#N)(n3cc(C(N)=O)c(Nc4ccnc(F)c4)n3)CC2)C1 (stereo not drawn) [Example 40-81, Cis or trans 1-[1-(cyanomethyl)-4-(3-methoxyazetidin-1-yl)cyclohexyl]-3-[(2-fluoropyridin-4-yl)amino]-1H-pyrazole-4-carboxamide] | 5 | 0.1 |  |
| N#CCC1(n2cc(C(N)=O)c(Nc3ccnc(F)c3)n2)CCC(N2CC(F)C2)CC1 (stereo not drawn) [Example 40-82, Cis or trans 1-[1-(cyanomethyl)-4-(3-fluoroazetidin-1-yl)cyclohexyl]-3-[(2-fluoropyridin-4-yl)amino]-1H-pyrazole-4-carboxamide] | 444 | 26 |  |
| N#CCC1(n2cc(C(N)=O)c(Nc3ccc(S(=O)(=O)C(F)F)cc3)n2)CCC(NCC(F)F)CC1 (stereo not drawn) [Example 40-84, Cis or trans 1-{1-(cyanomethyl)-4-[(2,2-difluoroethyl)amino]cyclohexyl}-3-({4-[(difluoromethyl)sulfonyl]phenyl}amino)-1H-pyrazole-4-carboxamide] | 3 | 0.04 |  |
| N#CCC1(n2cc(C(N)=O)c(Nc3ccc(S(=O)(=O)C(F)F)cc3)n2)CCC(NCC(F)(F)F)CC1 (stereo not drawn) [Example 40-85, Cis or trans 1-{1-(cyanomethyl)-4-[(2,2,2-trifluoroethyl)amino]cyclohexyl}-3-({4-[(difluoromethyl)sulfonyl]phenyl}amino)-1H-pyrazole-4-carboxamide] | 0.2 | 0.02 |  |
| N#CCC1(n2cc(C(N)=O)c(Nc3ccnc(F)c3)n2)CCC(NCC(F)F)CC1 (stereo not drawn) [Example 40-87, Cis or trans 1-{1-(cyanomethyl)-4-[(2,2-difluoroethyl)amino]cyclohexyl}-3-[(2-fluoropyridin-4-yl)amino]-1H-pyrazole-4-carboxamide] | 524 | 13 |  |
| N#CCC1(n2cc(C(N)=O)c(Nc3ccc(S(=O)(=O)C(F)F)cc3)n2)CCC(Nc2ccccc2)CC1 (stereo not drawn) [Example 40-88, Cis or trans 1-[1-(cyanomethyl)-4-(phenylamino)cyclohexyl]-3-({4-[(difluoromethyl)sulfonyl]phenyl}amino)-1H-pyrazole-4-carboxamide] | > 1500 | 200 |  |
| N#CCC1(n2cc(C(N)=O)c(Nc3ccc(S(=O)(=O)C(F)F)cc3)n2)CCC(NCC(F)(F)F)CC1 (stereo not drawn) [Example 40-89, Cis or trans 1-{1-(cyanomethyl)-4-[(2,2,2-trifluoroethyl)amino]cyclohexyl}-3-({4-[(difluoromethyl)sulfonyl]phenyl}amino)-1H-pyrazole-4-carboxamide] | 466 | 13 |  |
| N#CCC1(n2cc(C(N)=O)c(Nc3ccc(F)cc3)n2)CCC(N2Cc3ccccc3C2)CC1 (stereo not drawn) [Example 40-90, Cis or trans 1-[1-(cyanomethyl)-4-(1,3-dihydro-2H-isoindol-2-yl)cyclohexyl]-3-[(4-fluorophenyl)amino]-1H-pyrazole-4-carboxamide] | 84 | 9 |  |
| N#CCC1(n2cc(C(N)=O)c(Nc3ccc(F)cc3)n2)CCC(NCc2ccccc2)CC1 (stereo not drawn) [Example 40-92, Cis or trans 1-[4-(benzylamino)-1-(cyanomethyl)cyclohexyl]-3-[(4-fluorophenyl)amino]-1H-pyrazole-4-carboxamide] | 0.2 | 0.04 |  |
| N#CCC1(n2cc(C(N)=O)c(Nc3ccnc(F)c3)n2)CCC(NCC(F)(F)F)CC1 (stereo not drawn) [Example 40-93, Cis or trans 1-{1-(cyanomethyl)-4-[(2,2,2-trifluoroethyl)amino]cyclohexyl}-3-[(2-fluoropyridin-4-yl)amino]-1H-pyrazole-4-carboxamide] | > 1500 | 166 |  |
| COC1CN(C2CCC(CC#N)(n3cc(C(N)=O)c(Nc4ccnc(F)c4)n3)CC2)C1 (stereo not drawn) [Example 40-94, Cis or trans 1-[1-(cyanomethyl)-4-(3-methoxyazetidin-1-yl)cyclohexyl]-3-[(2-fluoropyridin-4-yl)amino]-1H-pyrazole-4-carboxamide] | > 1500 | 234 |  |
| N#CCC1(n2cc(C(N)=O)c(Nc3ccnc(F)c3)n2)CCC(NCC(F)(F)F)CC1 (stereo not drawn) [Example 40-95, Cis or trans 1-{1-(cyanomethyl)-4-[(2,2,2-trifluoroethyl)amino]cyclohexyl}-3-[(2-fluoropyridin-4-yl)amino]-1H-pyrazole-4-carboxamide] | 794 | 28 |  |
| N#CCC1(n2cc(C(N)=O)c(Nc3ccc(F)cc3)n2)CCC(Nc2ccccc2)CC1 (stereo not drawn) [Example 40-96, Cis or trans 1-[1-(cyanomethyl)-4-(phenylamino)cyclohexyl]-3-[(4-fluorophenyl)amino]-1H-pyrazole-4-carboxamide] | 2 | 0.09 |  |
| N#CCC1(n2cc(C(N)=O)c(Nc3ccc(S(=O)(=O)C(F)F)cc3)n2)CCC(NCC(F)F)CC1 (stereo not drawn) [Example 40-99, Cis or trans 1-{1-(cyanomethyl)-4-[(2,2-difluoroethyl)amino]cyclohexyl}-3-({4-[(difluoromethyl)sulfonyl]phenyl}amino)-1H-pyrazole-4-carboxamide] | > 1500 | 506 |  |
| N#CCC1(n2cc(C(N)=O)c(Nc3ccc(F)cc3)n2)CCC(N2CC(F)C2)CC1 (stereo not drawn) [Example 40-100, Cis or trans 1-[1-(cyanomethyl)-4-(3-fluoroazetidin-1-yl)cyclohexyl]-3-[(4-fluorophenyl)amino]-1H-pyrazole-4-carboxamide] | 216 | 18 |  |
| N#CCC1(n2cc(C(N)=O)c(Nc3ccc(S(=O)(=O)C(F)F)cc3)n2)CCC(Nc2ccccc2)CC1 (stereo not drawn) [Example 40-102, Cis or trans 1-[1-(cyanomethyl)-4-(phenylamino)cyclohexyl]-3-({4-[(difluoromethyl)sulfonyl]phenyl}amino)-1H-pyrazole-4-carboxamide] | 1 | 0.05 |  |
| N#CCC1(n2cc(C(N)=O)c(Nc3ccc(F)cc3)n2)CCC(Nc2ccccc2)CC1 (stereo not drawn) [Example 40-103, Cis or trans 1-[1-(cyanomethyl)-4-(phenylamino)cyclohexyl]-3-[(4-fluorophenyl)amino]-1H-pyrazole-4-carboxamide] | 3 | 0.1 |  |
| N#CCC1(n2cc(C(N)=O)c(Nc3ccnc(F)c3)n2)CCC(N2CC(F)C2)CC1 (stereo not drawn) [Example 40-104, Cis or trans 1-[1-(cyanomethyl)-4-(3-fluoroazetidin-1-yl)cyclohexyl]-3-[(2-fluoropyridin-4-yl)amino]-1H-pyrazole-4-carboxamide] | 11 | 0.2 |  |
| N#CCC1(n2cc(C(N)=O)c(Nc3ccnc(F)c3)n2)CCC(NCC(F)F)CC1 (stereo not drawn) [Example 40-106, Cis or trans 1-{1-(cyanomethyl)-4-[(2,2-difluoroethyl)amino]cyclohexyl}-3-[(2-fluoropyridin-4-yl)amino]-1H-pyrazole-4-carboxamide] | 31 |  | 4 |
| N#CC[C@]1(n2cc(C(N)=O)c(Nc3ccc(F)cc3)n2)CC[C@@H](NCc2ccccc2)CC1 [Example 40-108, 1-[cis-4-(benzylamino)-1-(cyanomethyl)cyclohexyl]-3-[(4-fluorophenyl)amino]-1H-pyrazole-4-carboxamide] | 2 | 0.09 |  |
